Results as given in PMC8031368 (ACS chemical biology, 2020).
One block for each compound: values may come before it.

Experiments:
[1] = Dynamic PET scan over 60 min, time activity curves; type: in vivo; details: male C57Bl6/J mice
GR [2] = target: T1, GR (Mus musculus, UniProt P06537); test: 18F-YJH08 uptake in adrenalectomized mice
T1 sequence (P06537 1-792): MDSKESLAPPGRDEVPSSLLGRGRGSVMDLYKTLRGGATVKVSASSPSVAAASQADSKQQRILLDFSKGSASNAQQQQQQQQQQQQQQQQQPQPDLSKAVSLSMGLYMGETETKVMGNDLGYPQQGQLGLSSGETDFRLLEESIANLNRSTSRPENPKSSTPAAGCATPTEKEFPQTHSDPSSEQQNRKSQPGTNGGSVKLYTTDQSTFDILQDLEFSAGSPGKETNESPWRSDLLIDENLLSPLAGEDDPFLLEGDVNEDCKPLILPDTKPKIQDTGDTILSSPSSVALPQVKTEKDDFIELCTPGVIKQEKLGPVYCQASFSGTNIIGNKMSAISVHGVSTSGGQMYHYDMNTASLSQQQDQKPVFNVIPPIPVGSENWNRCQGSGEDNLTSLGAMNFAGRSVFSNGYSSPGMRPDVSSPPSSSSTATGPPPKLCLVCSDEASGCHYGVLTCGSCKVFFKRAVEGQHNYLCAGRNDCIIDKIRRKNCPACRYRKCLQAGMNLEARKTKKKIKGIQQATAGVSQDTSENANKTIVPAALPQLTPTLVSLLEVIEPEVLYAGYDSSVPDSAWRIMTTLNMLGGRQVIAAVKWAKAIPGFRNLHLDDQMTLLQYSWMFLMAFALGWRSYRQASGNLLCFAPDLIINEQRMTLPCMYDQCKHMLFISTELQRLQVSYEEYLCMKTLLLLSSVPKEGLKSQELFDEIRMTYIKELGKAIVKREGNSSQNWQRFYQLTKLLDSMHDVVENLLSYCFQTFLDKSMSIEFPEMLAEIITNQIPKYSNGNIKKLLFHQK

GR [3] = target: T1, GR; test: 18F-YJH08 PET/CT in adipocyte specific GR knockout mice; type: in vivo; details: vs wild type litter mate, supraspinal and scapular brown fat depots
[4] = Biodistribution study post mortem; type: in vivo; details: C57Bl6/J mice, mean ± SD
[5] = Determination of partition coefficient; type: physicochemical; details: 1-octanol / PBS pH 7.4
GR in MDA MB 231 = test: Immunoblot of GR in MDA MB 231 cells treated with JG231; type: cell-based, human; details: 24 h
GR in MCF7 = test: Immunoblot of GR in MCF7 cells treated with JG231; type: cell-based, human; details: 24 h
GR [6] = test: Immunoblot of GR in tissues of JG231 treated mice; type: in vivo; details: JG231 4 mg/kg/day for 3 days intraperitoneally
[7] = test system: prostate cancer mouse models; details: cited from earlier work
[8] = test system: GR target genes (GILZ, FKBP5, Per1) in DU145 cells; test: Real time PCR of GR target genes in DU145 cells; type: cell-based, human; details: DU145 cells, dexamethasone 1 μM, 6 h exposure

- mechanism of clearance ([1]; liver uptake and washout): hepatobiliary
- tissue uptake in adx mice compared to intact mice (GR [2]): higher
- uptake in fat depots of GR^fl/fl, Adipoq-Cre knockout mice (GR [3]): significantly reduced
- uptake in adrenal gland ([4]; 30 min after injection): 20.02 ± 2.21 % ID/g
- uptake in adrenal gland ([4]; 60 min after injection): 9.43 ± 0.08 % ID/g
- uptake in adrenal gland ([4]; 90 min after injection): 5.72 ± 2.32 % ID/g
- uptake in blood ([4]; 30 min after injection): 0.85 ± 0.1 % ID/g
- uptake in blood ([4]; 60 min after injection): 0.57 ± 0.02 % ID/g
- uptake in blood ([4]; 90 min after injection): 0.49 ± 0.06 % ID/g
- uptake in bone ([4]; 30 min after injection): 1.11 ± 0.15 % ID/g
- uptake in bone ([4]; 60 min after injection): 0.61 ± 0.15 % ID/g
- uptake in bone ([4]; 90 min after injection): 0.58 ± 0.16 % ID/g
- uptake in brain ([4]; 30 min after injection): 1.68 ± 0.14 % ID/g
- uptake in brain ([4]; 60 min after injection): 1.33 ± 0.06 % ID/g
- uptake in brain ([4]; 90 min after injection): 0.97 ± 0.03 % ID/g
- uptake in heart ([4]; 30 min after injection): 3.04 ± 0.75 % ID/g
- uptake in heart ([4]; 60 min after injection): 1.33 ± 0.21 % ID/g
- uptake in heart ([4]; 90 min after injection): 0.92 ± 0.14 % ID/g
- uptake in kidney ([4]; 30 min after injection): 4.5 ± 0.5 % ID/g
- uptake in kidney ([4]; 60 min after injection): 2.35 ± 0.34 % ID/g
- uptake in kidney ([4]; 90 min after injection): 1.86 ± 0.26 % ID/g
- uptake in large intestine ([4]; 30 min after injection): 1.33 ± 0.35 % ID/g
- uptake in large intestine ([4]; 60 min after injection): 1.23 ± 0.43 % ID/g
- uptake in large intestine ([4]; 90 min after injection): 6.67 ± 4.73 % ID/g
- uptake in liver ([4]; 30 min after injection): 11.03 ± 0.89 % ID/g
- uptake in liver ([4]; 60 min after injection): 7.7 ± 0.69 % ID/g
- uptake in liver ([4]; 90 min after injection): 8.43 ± 1.38 % ID/g
- uptake in lung ([4]; 30 min after injection): 2.65 ± 0.19 % ID/g
- uptake in lung ([4]; 60 min after injection): 2.02 ± 0.29 % ID/g
- uptake in lung ([4]; 90 min after injection): 1.39 ± 0.1 % ID/g
- uptake in muscle ([4]; 30 min after injection): 1.49 ± 0.2 % ID/g
- uptake in muscle ([4]; 60 min after injection): 1.15 ± 0.03 % ID/g
- uptake in muscle ([4]; 90 min after injection): 0.85 ± 0.18 % ID/g
- uptake in pancreas ([4]; 30 min after injection): 4.5 ± 0.15 % ID/g
- uptake in pancreas ([4]; 60 min after injection): 2.63 ± 0.05 % ID/g
- uptake in pancreas ([4]; 90 min after injection): 1.9 ± 0.41 % ID/g
- uptake in small intestine ([4]; 30 min after injection): 19.05 ± 3.27 % ID/g
- uptake in small intestine ([4]; 60 min after injection): 8.61 ± 2.68 % ID/g
- uptake in small intestine ([4]; 90 min after injection): 7.67 ± 2.34 % ID/g
- uptake in spleen ([4]; 30 min after injection): 1.59 ± 0.13 % ID/g
- uptake in spleen ([4]; 60 min after injection): 0.83 ± 0.02 % ID/g
- uptake in spleen ([4]; 90 min after injection): 0.74 ± 0.15 % ID/g
- uptake in stomach ([4]; 30 min after injection): 1.88 ± 0.96 % ID/g
- uptake in stomach ([4]; 60 min after injection): 1.63 ± 0.92 % ID/g
- uptake in stomach ([4]; 90 min after injection): 2.61 ± 1.54 % ID/g
- uptake in supraspinal BAT ([4]; 30 min after injection): 14.41 ± 3.42 % ID/g
- uptake in supraspinal BAT ([4]; 60 min after injection): 16.4 ± 4.93 % ID/g
- uptake in supraspinal BAT ([4]; 90 min after injection): 14.58 ± 1.91 % ID/g
- partition coefficient (log P) [5]: 2.78
SMILES: COc1cccc2c1-c1ccc3c(c1C(Cc1ccc([18F])cc1)O2)C(C)=CC(C)(C)N3 (centres unmarked) [18F-YJH08, ^18F-5-(4-fluorobenzyl)-10-methoxy-2,2,4-trimethyl-2,5-dihydro-1H-chromeno[3,4-f]quinoline]
- radiotracer uptake in the bone (stability to radiodefluorination) [1]: low and approximately equivalent to muscle

SMILES: CCn1c(=O)/c(=C2\Sc3cc(Cl)ccc3N2C)s/c1=C\c1scc[n+]1Cc1ccc(Br)s1.[Cl-] [JG231]
- GR degradation (immunoblot) (GR in MDA MB 231): degrades GR
- GR degradation (immunoblot) (GR in MCF7): degrades GR
- change in GR levels in kidneys, liver, and muscle (GR [6]): no change
- reduction in GR expression levels in brown fat (GR [6]): ~ 50%
- antitumor activity [7]: antitumor activity

SMILES: C[C@@H]1C[C@H]2[C@@H]3CCC4=CC(=O)C=C[C@]4(C)[C@@]3(F)[C@@H](O)C[C@]2(C)[C@@]1(O)C(=O)CO [dexamethasone, reference compound]
- induction of Per1 [8]: induced
